Results taken from patent US20230075822A1, “USE OF CASTALAGIN OR ANALOGS THEREOF FOR ANTI-CANCER EFFICACY AND TO INCREASE THE RESPONSE TO IMMUNE CHECKPOINT INHIBITORS” (THE ROYAL INSTITUTION FOR THE ADVANCEMENT OF …, priority 2020, published 2023).

Assays:
MCA-205 sarcoma = assay: Subcutaneous MCA-205 sarcoma tumor model (anti-PD-1 sensitive), SPF-reared mice; format: in vivo, C57BL/6 mice; details: for anti-cancer activity (tumor size at sacrifice): in the presence of anti-PD-1
Procedure: FIG. 1A is a schematic of the protocol used to study the effect of a Camu camu extract (CC) alone and additive effect when combined to anti-PD-1 therapy in a murine tumor model sensitive to anti-PD-1 therapy. Syngeneic C57BL/6 mice were implanted with 0.8×10^6 MCA-205 sarcoma, subcutaneously and treated intraperitoneally (i.p.) when tumors reached 20 to 35 mm^2 in size with anti-PD-1 mAb (250 μg/mouse; clone RMP1-14,) or isotype control (clone 2A3) with or without daily oral gavage with 200 mg/kg of [NT] Powder from SunFood). Murine studies. All animal studies were approved by the Institutional Animal Care Committee (CIPA) and carried out in compliance with the Canadian Council on Animal Care guidelines. Murine experiments were conducted using seven-week-old female C57BL/6 mice, obtained from Charles River, Canada. Germ-free female C57BL/6 mice were purchased from the International Microbiome Centre Germ-Free Facility (University of Calgary, Canada) and maintained at the CR-CHUM Germ-Free Facility. Cell culture, reagents and tumor cell lines. MCA-205 fibrosarcoma cells and E0771 mammary adenocarcinoma cells, class I MHC H-2b syngeneic cell lines for C57BL/6 mice, were used for this study. MCA-205 cells were cultured at 37° C. in the presence of 5% CO2 in Roswell Park Memorial Institute (RPMI) 1640 (Gibco-lnvitrogen) containing 10% Fetal bovine serum (FBS) (Wisent), 2 mM L-glutamine (Wisent), 100 IU/ml penicillin/streptomycin (Wisent), 1 mM sodium pyruvate (Wisent) and MEM non-essential amino acids (Gibco-lnvitrogen). E0771 cells were cultured at 37° C. in the presence of 5% CO2 in Dulbecco's Modified Eagle's Medium (DMEM) (Gibco-lnvitrogen) containing 10% FBS (Wisent), 2 mM L-glutamine, 100 IU/ml penicillin/streptomycin (Wisent), 1 mM sodium pyruvate (Wisent). Subcutaneous model of MCA-205 sarcoma and E0771 breast cancer. Syngeneic C57BL/6 mice were implanted with 0.8×10^6 MCA-205 or 0.5×10^6 E0771 subcutaneously. When tumors reached 20 to 35 mm^2 in size, mice were treated four times (or two times for flow cytometry analysis, see section below) intraperitoneally (i.p.) every three day with anti-PD-1 monoclonal antibody (mAb) (250 μg/mouse; clone RMP1-14, BioXcell) or isotype control (clone 2A3, BioXcell). Upon treatment initiation, mice received a daily oral gavage with the following products: Myrciaria dubia, [NT] raw extract (Sunfood) (200 mg/kg per mouse), fractions from the extraction round 1 (P, INT, NP, Insol) (40.18 mg/kg per mouse), fractions from the extraction round 2 (P1, P2, P3 and P4) (equivalent to fraction P dose of 40.18 mg/kg per mouse), […] (extracted from CC, see isolation process below) (0.85 mg/kg per mouse), ellagic acid (0.85 mg/kg per mouse) (Sigma-Aldrich), urolithin A (0.85 mg/kg per mouse) (Sigma-Aldrich), […] (0.5 mg/kg per mouse) (PhytoProof®, Sigma-Aldrich) and castalagin at different concentration: 1/8, 1/6, 1/4, 1/2 of the standard concentration, at the standard concentration (0.85 mg/kg per mouse), 1.5-fold (1.25 mg/kg per mouse) and three-fold increase concentration (2.55 mg/kg per mouse) (PhytoProof©, Sigma-Aldrich or isolated from food grade oak, see isolation process below). In the control group mice received daily oral gavage with water (100 μL) Tumor area was routinely monitored every three days by means of a caliper. In the depletion experiments, we used the anti-CD8 mAb (150 μg/mouse; clone 53-6.7, BioXcell) or isotype control (clone 2A3, BioXcell.

Ruminococcaceae = assay: qRT-PCR with Ruminococcaceae-specific primers on mouse feces; format: in vivo, mice; details: 6 days of oral gavage, vs water
Procedure: FIG. 9J is a graph showing the effect of castalagin treatment (0 mg/kg, 1/4×, 0.21 mg/kg, 1×, 0.85 mg/kg, and 3×, 2.55 mg/kg) on the amount of Ruminococcaceae in the feces. Real-time PCR was performed on DNA extracted from mouse stools after 6 days of oral gavage with water or castalagin at 0.21 mg/kg, 0.85 mg/kg and 2.55 mg/kg using specific primers for Ruminococcaceae detection in MCA-205-bearing, SPF-reared mice (n=5). *p<0.05, **p<0.01.
FIG. 13 is a graph depicting the results of qPCR assays performed on DNA extracted from mouse stools after 6 days of oral gavage with water or castalagin at 0.85 mg/kg using specific primers for Ruminococcaceae detection in MCA-205—bearing, SPF-reared mice (n=10). *p<0.05,
Genomic DNA extraction from mouse feces. Total genomic DNA from fecal pellets was extracted using ZymoBIOMICS DNA Miniprep Kit (Zymo Research Corporation) and immediately stored at -80° C. This protocol involves a bead beating step to ensure full recovery of bacterial DNA. DNA concentration and quality were measured using the Nanodrop ND-1000 (ThermoFisher).
Quantitative real-time PCR (qRT-PCR). Quantitative real-time PCR was performed to evaluate the relative levels of the total bacterial DNA and the V6 region of the 16S rRNA gene was amplified using the primer set 891F (5′-[…]-3′, SEQ ID NO:1) and 1033R (5′-TGCGGGACTTAACCCAACA-3′, SEQ ID NO:2) (Anhê et al. Diabetologia. 2018 April; 61(4):919-931) and specifically to evaluate the relative levels of the Ruminococcaceae DNA using the specific primers F (5′-[…]-3′, SEQ ID NO:3) and R (5′-[…]-3′, SEQ ID NO:4) (Garcia-Mazcorro JF et al FEMS Microbiol Ecol 2012; 80(3):624-36). DNA (400ng/well) extracted was combined with 500 nM of the above described primer mix and 1× qPCRBIO SyGreen blue Mix Hi-ROX (PCRBIOSystems). The qPCR reaction was performed on the Applied Biosystems StepOnePlus Real-Time PCR System (ThermoFisher Scientific) at 95° C. for 3min to denature DNA, with amplification proceeding for 40 cycles at 95° C. for 5s, 60° C. for 30 s, and completed with a melt curve stage. Raw threshold cycle (Ct) values were compared to a bacterial standard curve produced with Escherichia coli DNA for the 16s analysis and with Ruminoccocus bicirculans for the Rumniccocaceae analysis for approximation of bacterial load.

For `O=C1OC[C@H]2OC(=O)c3cc(O)c(O)c(O)c3-c3c(O)c(O)c(O)c4c3C(=O)O[C@H]([C@H]3OC(=O)c5c-4c(O)c(O)c(O)c5[C@@H]3O)[C@@H]2OC(=O)c2cc(O)c(O)c(O)c2-c2c1cc(O)c(O)c2O` [castalagin, Castalagin], the “dose dependence of anti-cancer activity” value (MCA-205 sarcoma; 6 concentrations from ⅛ to 3-fold the standard dose) was “dose-dependent effect with a potential plateau”, the antitumor effect (MCA-205 sarcoma; dose experiment, 1/4 concentration dose (0.21 mg/kg)) was “no antitumor effect” and the “anti-cancer activity (tumor size at sacrifice)” value (MCA-205 sarcoma; dose experiment, 3-fold concentration (2.55 mg/kg per mouse)) was “did not the standard dose”. For the same compound, the “anti-cancer activity (tumor size at sacrifice)” value (MCA-205 sarcoma; dose experiment, standard dose (0.85 mg/kg)) was “anti-cancer activity became significant”, the “anti-cancer activity (tumor size at sacrifice)” value (MCA-205 sarcoma; dose experiment, ½ dose (0.42 mg/kg)) was “Some anti-cancer activity was observed” and the “Ruminococcaceae abundance (qRT-PCR)” value (Ruminococcaceae; 1/4 concentration dose (0.21 mg/kg)) was “not increase”. The “Ruminococcaceae abundance (qRT-PCR), duplicated experiment” value (Ruminococcaceae; castalagin 0.85 mg/kg, n=10) was “increase of Ruminococcaceae”, the “Ruminococcaceae abundance (qRT-PCR)” value (Ruminococcaceae; standard castalagin dose (0.85 mg/kg)) was “significantly increased” and the “Ruminococcaceae abundance (qRT-PCR)” value (Ruminococcaceae; three-fold standard castalagin dose (2.55 mg/kg)) was “significantly increased”.
